Test results published in patent publication US8431563B2 (priority 2010, dated 2013).
Like-named read-outs stand apart in the source and are kept apart here.

Assays:
[1] = biological target: T1, GKRP (Glucokinase Regulatory Protein) with human His-hepatic GK (Homo sapiens, UniProt Q14397); experiment: biochemical
T1 sequence (Q14397 1-625): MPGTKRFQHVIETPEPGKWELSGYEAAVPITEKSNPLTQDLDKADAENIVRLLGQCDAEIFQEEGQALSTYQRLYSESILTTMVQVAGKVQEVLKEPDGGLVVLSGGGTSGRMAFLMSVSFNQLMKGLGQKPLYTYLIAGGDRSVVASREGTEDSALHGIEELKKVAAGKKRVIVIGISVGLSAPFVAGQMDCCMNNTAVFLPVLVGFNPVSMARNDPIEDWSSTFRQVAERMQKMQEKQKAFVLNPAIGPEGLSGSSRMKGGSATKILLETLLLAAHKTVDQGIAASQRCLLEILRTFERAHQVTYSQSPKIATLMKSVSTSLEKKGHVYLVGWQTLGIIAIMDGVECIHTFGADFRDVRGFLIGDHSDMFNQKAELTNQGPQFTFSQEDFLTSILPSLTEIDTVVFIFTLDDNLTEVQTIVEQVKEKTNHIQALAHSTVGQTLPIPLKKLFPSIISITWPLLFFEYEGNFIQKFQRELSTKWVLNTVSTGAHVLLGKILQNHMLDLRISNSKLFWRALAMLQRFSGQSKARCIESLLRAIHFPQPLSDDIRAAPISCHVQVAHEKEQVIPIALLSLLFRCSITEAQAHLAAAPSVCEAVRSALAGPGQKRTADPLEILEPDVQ
Procedure: GKRP LC MS/MS-2 Biochemical Assay
This assay is used to directly measure the formation of ^13C-glucose-6-phosphate from ^13C-glucose by LC MS/MS. Begin by preparing the following solutions: Compound Buffer (CB): 50 mM Tris, pH 7.5/4 mM MgCl2/6% DMSO/fresh 10 mM DTT from 1M frozen stock. Enzyme Buffer (EB): 50 mM Tris, pH 7.5/4 mM MgCl2/6% DMSO/fresh 0.1% BSA/fresh 0.01% Brij-35 (10% BSA and 1% Brij-35 stock). GK (Glucokinase) Working Stock (5×): Dilute human His-hepatic GK to 30 nM in EB buffer. […] After 30 minutes add 10 μl of GK Working Stock (5×). Re-seal the plate and incubate for another 30 minutes at room temperature while mixing. After the second 30 minutes, stop the reaction by the addition of 50 μl of 100% acetonitrile, seal, and mix for 5-10 minutes. Run 10 μl of this sample through the LC MS/MS (API 3200, Applied Biosystems, Carlsbad, Calif.).

[2] = biological target: T2, interaction between glucokinase (GK) and glucokinase regulatory protein (GKRP) (Homo sapiens, UniProt Q14397); experiment: biochemical; format: binding
T2 sequence (Q14397 1-625): T1 sequence (Q14397 1-625)
Procedure, shortened: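 Measures direct GK–GKRP binding in 20 mM Tris pH 7.5 containing 1 μM sorbitol-6-phosphate, 0.05% BSA and 1 mM DTT. Compound and avi-tagged GKRP sit 20 min at room temperature before GK-fluorescein addition (6 nM in the added buffer); read after 2 h dark incubation at room temperature.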

[3] = 13C-glucose-6-phosphate formation, 280 nM GKRP (10×), 30 nM GK (5×), read-out: GK-GKRP EC50 (LC MS/MS-2)
[4] = avi-tagged GKRP, GK-fluorescein, AlphaScreen beads, read-out: GK-GKRP IC50 (Binding)

Structure (SMILES)	EC50 ([1]; GK-GKRP EC50 (LC MS/MS-2))	IC50 ([2]; GK-GKRP IC50 (Binding))	EC50 [1, 3]	IC50 [2, 4]
CC(O)(c1ccc(N2CCN(S(=O)(=O)c3cccs3)C[C@@H]2CN2CC3CCOC3C2)cc1)C(F)(F)F (stereo partly drawn) [Example 122, 1,1,1-trifluoro-2-(4-((2S)-2-(cis-hexahydro-5H-furo[2,3-c]pyrrol-5-ylmethyl)-4-(2-thiophenylsulfonyl)-1-piperazinyl)phenyl)-2-propanol]	313 nM	555 nM	–	–
CC(O)(c1ccc(N2CCN(S(=O)(=O)c3cccs3)C[C@@H]2CNS(=O)(=O)c2cccnc2)cc1)C(F)(F)F (mixture of isomers) [Example 192, N-(((2S)-4-(2-thiophenylsulfonyl)-1-(4-(2,2,2-trifluoro-1-hydroxy-1-methylethyl)phenyl)-2-piperazinyl)methyl)-3-pyridinesulfonamide]	–	–	126 nM	103 nM
CC(O)(c1ccc(N2CCN(S(=O)(=O)c3cccs3)C[C@@H]2COCc2ccco2)cc1)C(F)(F)F (mixture of isomers) [Example 116, 1,1,1-trifluoro-2-(4-((2R)-2-((2-furanylmethoxy)methyl)-4-(2-thiophenylsulfonyl)-1-piperazinyl)phenyl)-2-propanol]	–	–	103 nM	284 nM
CC(O)(c1ccc(N2CCN(S(=O)(=O)c3cccs3)C[C@@H]2CSc2ccc(F)cc2)cc1)C(F)(F)F (mixture of isomers) [Example 190, 1,1,1-trifluoro-2-(4-((2R)-2-(((4-fluorophenyl)sulfanyl)methyl)-4-(2-thiophenylsulfonyl)-1-piperazinyl)phenyl)-2-propanol]	–	–	15 nM	30 nM
C[C@H]1CN(S(=O)(=O)c2cccs2)CCN1c1ncc(C(O)(C(F)(F)F)C(F)(F)F)cn1 [Example 94, 1,1,1,3,3,3-hexafluoro-2-(2-((2S)-2-methyl-4-(2-thiophenylsulfonyl)-1-piperazinyl)-5-pyrimidinyl)-2-propanol]	–	–	470 nM	362 nM
CC(O)(c1cnc(N2CCN(S(=O)(=O)c3ccc(N)s3)C[C@@H]2CC2CCOCC2)nc1)C(F)(F)F (mixture of isomers) [Example 135, 2-(2-((2S)-4-((5-amino-2-thiophenyl)sulfonyl)-2-(tetrahydro-2H-pyran-4-ylmethyl)-1-piperazinyl)-5-pyrimidinyl)-1,1,1-trifluoro-2-propanol]	–	–	108 nM	55 nM
CC(C)CN(C[C@H]1CN(S(=O)(=O)c2cccnc2N)CCN1c1ncc(C(O)(C(F)(F)F)C(F)(F)F)cn1)S(C)(=O)=O [Example 230 (2-amino-3-pyridinyl), N-(((2S)-4-((2-amino-3-pyridinyl)sulfonyl)-1-(5-(2,2,2-trifluoro-1-hydroxy-1-(trifluoromethyl)ethyl)-2-pyrimidinyl)-2-piperazinyl)methyl)-N-(2-methylpropyl)methanesulfonamide]	–	–	95 nM	64 nM
CC(O)(c1ccc(N2CCN(S(=O)(=O)c3cccs3)C[C@@H]2CN2CCS(=O)(=O)CC2C2CC2)cc1)C(F)(F)F (mixture of isomers) [Example 87, 2-(4-((2S)-2-((3-cyclopropyl-1,1-dioxido-4-thiomorpholinyl)methyl)-4-(2-thiophenylsulfonyl)-1-piperazinyl)phenyl)-1,1,1-trifluoro-2-propanol]	–	–	246 nM	229 nM
CC(O)(c1ccc(N2CCN(S(=O)(=O)c3cccs3)C[C@@H]2CN(C2COC2)C2COC2)cc1)C(F)(F)F (mixture of isomers) [Example 205, 2-(4-((2S)-2-((di-3-oxetanylamino)methyl)-4-(2-thiophenylsulfonyl)-1-piperazinyl)phenyl)-1,1,1-trifluoro-2-propanol]	–	–	480 nM	435 nM
CC(O)(c1ccc(N2CCN(S(=O)(=O)c3cccs3)C[C@@H]2CN2C3COCC2C(O)C3)cc1)C(F)(F)F (single isomer, unassigned) [Example 78 Peak #4]	–	–	46 nM	40 nM
CC(O)(c1ccc(N2CCN(S(=O)(=O)c3cccs3)C[C@@H]2CN(Cc2ccccc2)S(C)(=O)=O)cc1)C(F)(F)F (mixture of isomers) [Example 220, N-benzyl-N-(((2S)-4-(2-thiophenylsulfonyl)-1-(4-(2,2,2-trifluoro-1-hydroxy-1-methylethyl)phenyl)-2-piperazinyl)methyl)methanesulfonamide]	–	–	15 nM	3 nM
C[C@H]1C(=O)NCCN1C[C@H]1CN(S(=O)(=O)c2cccs2)CCN1c1ccc(C(C)(O)C(F)(F)F)cc1 (mixture of isomers) [Example 182, (3S)-3-methyl-4-(((2S)-4-(2-thiophenylsulfonyl)-1-(4-(2,2,2-trifluoro-1-hydroxy-1-methylethyl)phenyl)-2-piperazinyl)methyl)-2-piperazinone]	–	–	69 nM	46 nM
CC(O)(c1ccc(N2CCN(S(=O)(=O)c3cccs3)C[C@@H]2CN2C3COCC2C(O)C3)cc1)C(F)(F)F (single isomer, unassigned) [Example 78 Peak #3]	–	–	36 nM	33 nM
CC(O)(c1ccc(N2CCN(S(=O)(=O)c3cccs3)C[C@@H]2CN2CCS(=O)(=O)CC2)cc1)C(F)(F)F (mixture of isomers) [Example 85, 2-(4-((2S)-2-((1,1-dioxido-4-thiomorpholinyl)methyl)-4-(2-thiophenylsulfonyl)-1-piperazinyl)phenyl)-1,1,1-trifluoro-2-propanol]	–	–	475 nM	350 nM
CC(O)(c1ccc(N2CCN(S(=O)(=O)c3cccs3)C[C@@H]2CN2C3COCC2C(O)C3)cc1)C(F)(F)F (stereo partly drawn) [Example 78, 8-(((2S)-4-(2-thiophenylsulfonyl)-1-(4-(2,2,2-trifluoro-1-hydroxy-1-methylethyl)phenyl)-2-piperazinyl)methyl)-3-oxa-8-azabicyclo[3.2.1]octan-6-ol]	–	–	50 nM	42 nM
CC(C)N(C[C@H]1CN(S(=O)(=O)c2cccs2)CCN1c1ccc(C(C)(O)C(F)(F)F)cc1)S(=O)(=O)c1ccccc1 (mixture of isomers) [Example 197, N-(1-methylethyl)-N-(((2R)-4-(2-thiophenylsulfonyl)-1-(4-(2,2,2-trifluoro-1-hydroxy-1-methylethyl)phenyl)-2-piperazinyl)methyl)benzenesulfonamide]	–	–	80 nM	215 nM
CN(C[C@H]1CN(S(=O)(=O)c2cccs2)CCN1c1ccc(C(C)(O)C(F)(F)F)cc1)S(=O)(=O)c1cccnc1 (mixture of isomers) [Example 217, N-methyl-N-(((2S)-4-(2-thiophenylsulfonyl)-1-(4-(2,2,2-trifluoro-1-hydroxy-1-methylethyl)phenyl)-2-piperazinyl)methyl)-3-pyridinesulfonamide]	–	–	752 nM	407 nM
CC(O)(c1ccc(N2CCN(S(=O)(=O)c3cccs3)C[C@@H]2C[S+]([O-])c2ccc(F)cc2)cc1)C(F)(F)F (single isomer, unassigned) [Example 191 Peak#3]	–	–	262 nM	259 nM
CC(C)CN(C[C@H]1CN(S(=O)(=O)c2cccs2)CCN1c1ccc(C(C)(O)C(F)(F)F)cc1)S(=O)(=O)CC(F)(F)F (mixture of isomers) [Example 214, 2,2,2-trifluoro-N-(2-methylpropyl)-N-(((2S)-4-(2-thiophenylsulfonyl)-1-(4-(2,2,2-trifluoro-1-hydroxy-1-methylethyl)phenyl)-2-piperazinyl)methyl) ethanesulfonamide]	–	–	247 nM	238 nM
Nc1ccc(S(=O)(=O)N2CCN(c3ncc(C(O)(C(F)(F)F)C(F)(F)F)cn3)[C@@H](CN3C4COCC3CC(O)C4)C2)s1 (stereo partly drawn) [Example 98 nonan-7-ol (endo), 9-(((2S)-4-((5-amino-2-thiophenyl)sulfonyl)-1-(5-(2,2,2-trifluoro-1-hydroxy-1-(trifluoromethyl)ethyl)-2-pyrimidinyl)-2-piperazinyl)methyl)-3-oxa-9-azabicyclo[3.3.1]nonan-7-ol (endo)]	–	–	19 nM	2 nM
